# In patent US20050255504A1, “Method of detecting an increased susceptibility to breast cancer” (priority 2004, published 2005):
# Experiments:
# [1] = target: T1, COMT (Homo sapiens, UniProt P21964); assay: Assay of COMT activity: methylation of catechol estrogens by purified recombinant His-COMT; type: biochemical; settings: substrate of COMT, FIG. 9
# T1 construct: made in house; host or cells: Escherichia coli DH5alphaF'Iq
# T1 sequence (P21964 1-221 isoform P21964-2): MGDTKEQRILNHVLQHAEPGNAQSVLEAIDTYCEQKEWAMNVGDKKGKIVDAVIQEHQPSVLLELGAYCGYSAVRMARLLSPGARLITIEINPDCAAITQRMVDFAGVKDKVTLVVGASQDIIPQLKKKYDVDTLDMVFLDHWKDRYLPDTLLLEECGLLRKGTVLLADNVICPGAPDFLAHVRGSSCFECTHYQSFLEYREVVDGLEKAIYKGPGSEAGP
# Procedure: Assay of COMT Activity. Purified recombinant His-COMT (300 pmol) was reconstituted in 0.5 ml of 100 mM KPO4, pH 7.4, containing 5 mM MgCl2, 10 mM (β-mercaptoethanol, and 200 μM SAM. Reactions were initiated by adding varying concentrations of each individual catechol estrogen (2, 3, 6, 9, 12, 15, 20, 40, 60, 80, and 100 μM). Blanks contained all compounds except SAM. Reactions proceeded for 10 min at 37° C. with gentle shaking and then were terminated by addition of 2 ml CH2Cl2. To determine COMT activity in breast cancer cells, ZR-75 and MCF-7 cells were harvested at confluency and homogenized in 100 mM KP04, pH 7.4, 5 mM MgCl2, 10 mM β-mercaptoethanol. Following ultracentrifugation of the cell homogenate (110,000 g, 30 min, 4° C.), the supernatant cytosol was divided into aliquots for ICELISA, protein determination (BCA assay; Pierce, Rockford, Ill.), and COMT assay. The latter was carried out in the presence of 200 μM SAM and 100 μM catechol estrogen for 20 min at 37° C. and then terminated by addition of CH2Cl2. The concentration of endogenous catechol and methoxy estrogens was below the limit of detection by gas chromatography/mass spectrometry.
# Extraction and Gas Chromatography/Mass Spectrometry Analysis of Catechol Estrogens. A deuterated internal standard (100 μl of 8 mg/liter E2-d4 in methanol) was added and all estrogens extracted into the CH2Cl2 by vortex mixing for 30 s. 1.5 ml of the CH2Cl2 fraction was evaporated to dryness under air and volatile TMS derivatives prepared by heating the residue with 100 μl of 50% NO-bis(trimethylsilyl)trifluoroacetamide/1% trimethyl chlorosilane in acetonitrile at 56° C. for 30 min. The TMS derivatives of the estrogen metabolites were separated by gas chromatography (H—P 5890, Hewlett-Packard, Wilmington, Del.) on a 5% phenyl methyl silicone stationary phase fused silica capillary column (30 m×0.2 mm×0.5 μm film, HP5; Hewlett-Packard). Helium carrier gas was used at a flow of 1 ml/min. The injector was operated at 250° C., with 2 μl injected in the splitless mode, with a purge (60 ml/min helium) time of 0.6 min. The oven temperature was held at 180° C. for 0.5 min, then raised at 6° C./min to 250° C. where it was held for 17 min, then raised to 300° C. at 8° C./min to give a total run time of 35.42 min. This program permitted adequate separation of a wide range of estrogen metabolites. Retention times (in min) for the TMS derivatives were E1 20.13, E2 and E2-d4 21.89, 4-MeOE1 23.52, 2-MeO-3-MeOE1 (underivatized) 23.75, 2-OH-3-MeOE1 24.87, 2-MeOE1 25.2, 4-MeOE2 25.78, 2-OHE1 and 2-MeO-3-MeOE2 26.19, 2-OH-3-MeOE2 26.9, 2-MeOE2 27.18, 4-OHE1 27.27, 6a-OHE2 27.29, 2-OHE2 27.44, 4-OHE2 28.06, E3 28.38. The E1 mass spectrometer (H—P 5970) was operated in the selected ion monitoring mode from 18 to 30 min. Ions monitored were TMS-E1 342, 257, 343; TMS2-E2-d4 420, 421, 287; TMS2-E2 416, 417, 285; TMS-4-MeOE1, TMS-2-OH-3-MeOE1, TMS-2-MeOE1 and TMS-3-MeO-4-OHE1 372, 373, 342; 2-MeO-3-MeOE1 314, 315, 229; TMS2-4-MeOE2, TMS2-2-OH-3-MeOE2, TMS2-2-MeOE2 and TMS2-3-MeO-4-OHE2 446, 447, 315; TMS2-2-OHE1 430, 431, 432; TMS-2-MeO-3-MeOE2 388, 389, 257; TMS2-4-OHE1 430, 431, 345; TMS2-6α-OHE2 414, 283, 309; TMS3-2-OHE2 and TMS3-4-OHE2 504, 505, 373; TMS3-E3 504, 505, 311 (FIG. 7). The instrument was calibrated by simultaneous preparation of an 11-point calibration over the range 0-22 nmol/tube of each compound. Sensitivity was determined to be between 0.02 and 0.04 nmol/tube (400-800 finol on column) for the various compounds. […] Absolute extraction efficiency for E2,2-OH-E2 and 4-OH-E2 at 3.5 nmol/tube was 119, 96, and 107% assessed by comparison to injections of spiked solvent samples onto the gas chromatograph. Internal standard added prior to extraction compensated for deviation from 100% recovery for all investigated compounds.
# Statistical Analysis. […]
# [2] = test system: renal DNA; settings: hamster, in vivo; cited from earlier work
smiles,measurement,setting,value
C[C@]12CC[C@@H]3c4ccc(O)c(O)c4CC[C@H]3[C@@H]1CC[C@@H]2O [Variant 4-OHE2],pattern of the rates of methylation versus substrate concentration,[1],sigmoid curve pattern
same,levels of the oxidized base 8-hydroxy-deoxyguanosine in renal DNA,[2],significantly increased
